Publication PMC4335062, “Data-Driven Prediction and Design of bZIP Coiled-Coil Interactions” (PLoS Computational Biology, 2015)
Where two headings read alike, the source gives them in different places. Where no end group is shown, it is not given here.

What was measured:
Assay in all cases: Direct-binding FRET assay
Settings in all cases: read-out: Kd
ATF3 = target: T1, ATF3 (Homo sapiens, UniProt P18847)
T1 construct: made in house
T1 sequence (P18847 86-149 limits assumed): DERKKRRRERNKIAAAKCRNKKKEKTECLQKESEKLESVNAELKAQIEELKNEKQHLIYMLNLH
Procedure: (§1) The direct binding assay was performed manually in 384-well plates and is similar to a previously described assay. Wells were filled with 20 μL of 1 mM TCEP-HCl. A 4 μM stock of acceptor protein was made fresh in 1 mM TCEP-HCl, and 20 μL was titrated in 2-fold dilutions over the wells. […] The direct-binding FRET data were fit as previously described. Briefly, the Kd of the designed peptide homodimer was experimentally determined and used with previously determined target homodimer Kd values to determine the heterodimer Kd. The homodimer Kd values used for the human bZIPs were from; experiments done by […] et al. used the same protein constructs for the human bZIP proteins, the same buffer conditions, and the same assay. The fitting used a system of ordinary differential equations to describe the concentrations of homo and heterodimers formed by the donor (D) and acceptor (A) as a function of the heterodimer Kd. MATLAB was used to simulate the binding experiment for different Kd values, and the value that gave the best agreement between simulation and experiment was assigned. A minimum 15% change in the donor fluorescence upon titrating the acceptor peptide from 0 to 1000 nM was required for a fit to be attempted. If this minimum was not met, the interaction was classified as “NS” for no signal change. […] For such curves, we removed the first five points and re-fit the data.

XBP1 = target: T2, XBP1 (Homo sapiens, UniProt P17861)
T2 construct: made in house
T2 sequence (P17861 70-133 limits assumed): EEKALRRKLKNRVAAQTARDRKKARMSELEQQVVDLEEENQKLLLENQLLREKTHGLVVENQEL
Procedure: as §1

MAFF = target: T3, MAFF (Homo sapiens, UniProt Q9ULX9)
T3 construct: made in house
T3 sequence (Q9ULX9 51-114 limits assumed): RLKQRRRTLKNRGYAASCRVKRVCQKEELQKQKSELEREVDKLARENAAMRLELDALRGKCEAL
Procedure: as §1

MAF = MAF (Homo sapiens, UniProt O75444); set-up: made in house
Procedure: (§2) The direct binding assay was performed manually in 384-well plates and is similar to a previously described assay. Wells were filled with 20 μL of 1 mM TCEP-HCl. A 4 μM stock of acceptor protein was made fresh in 1 mM TCEP-HCl, and 20 μL was titrated in 2-fold dilutions over the wells. […] The direct-binding FRET data were fit as previously described. Briefly, the Kd of the designed peptide homodimer was experimentally determined and used with previously determined target homodimer Kd values to determine the heterodimer Kd. The homodimer Kd values used for the human bZIPs were from; experiments done by […] et al. used the same protein constructs for the human bZIP proteins, the same buffer conditions, and the same assay. The fitting used a system of ordinary differential equations to describe the concentrations of homo and heterodimers formed by the donor (D) and acceptor (A) as a function of the heterodimer Kd. MATLAB was used to simulate the binding experiment for different Kd values, and the value that gave the best agreement between simulation and experiment was assigned. A minimum 15% change in the donor fluorescence upon titrating the acceptor peptide from 0 to 1000 nM was required for a fit to be attempted. If this minimum was not met, the interaction was classified as “NS” for no signal change. […] These interactions were marked “AS” to indicate anomalous signal. We attributed this to interactions between the peptides, the dyes and the walls of the assay plates at low concentrations. These curves could not be fit, given their unusual shapes at low concentrations of acceptor. For such curves, we removed the first five points and re-fit the data. […] One example of this is increasing concentrations of acceptor causing an increase in donor fluorescence.

NFE2L1 = NFE2L1 (Homo sapiens, UniProt Q14494); set-up: made in house
Procedure: as §2

BACH2 = BACH2 (Homo sapiens, UniProt Q9BYV9); set-up: made in house
Procedure: as §2

ATF6 = ATF6 (Homo sapiens, UniProt P18850); set-up: made in house
Procedure: as §2

BACH1 = BACH1 (Homo sapiens, UniProt O14867); set-up: made in house
Procedure: as §2

MAFB = MAFB (Homo sapiens, UniProt Q9Y5Q3); set-up: made in house
Procedure: as §2

[1] = 4°C, C-terminal fluorescein design as donor, TAMRA target titrated
[2] = 4°C, C-terminal rhodamine design, mean or single
[3] = 4°C, N-terminal rhodamine design, mean or single
[4] = 23°C, C-terminal fluorescein design as donor, TAMRA target titrated
[5] = 23°C, C-terminal rhodamine design, mean or single
[6] = 23°C, N-terminal rhodamine design, mean or single
[7] = 37°C, C-terminal fluorescein design as donor, TAMRA target titrated
[8] = 37°C, C-terminal rhodamine design, mean or single
[9] = 37°C, N-terminal rhodamine design, mean or single
[10] = 23°C, N-terminal rhodamine design, repeat 1

Sequence of ATF6 (P18850 306-369 limits assumed): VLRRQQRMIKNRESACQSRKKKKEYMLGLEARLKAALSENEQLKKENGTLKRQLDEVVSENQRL
Sequence of BACH2 (Q9BYV9 646-709 limits assumed): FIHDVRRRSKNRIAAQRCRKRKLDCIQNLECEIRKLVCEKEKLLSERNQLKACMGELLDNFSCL
Sequence of NFE2L1 (Q14494 654-717 limits assumed): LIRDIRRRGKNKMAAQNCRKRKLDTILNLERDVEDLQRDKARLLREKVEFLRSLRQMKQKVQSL

Sequence “EREAQLENRVAHLKEKNQELKAQNLHLKEALSEAQNRNQELKNDA [XBP1-d1]” has a Kd (ATF3; [1]) greater than 1000 nM, a Kd (ATF3; [2]) greater than 1000 nM and a Kd (ATF3; [3]) greater than 1000 nM. It also gave a Kd (ATF3; [4]) greater than 1000 nM, a Kd (ATF3; [5]) greater than 1000 nM and a Kd (ATF3; [6]) greater than 1000 nM. It also gave a Kd (ATF3; [7]) greater than 1000 nM, a Kd (ATF3; [8]) greater than 1000 nM and a Kd (ATF3; [9]) greater than 1000 nM. It also gave a Kd (XBP1; [10]) greater than 1000 nM, a Kd (XBP1; 23°C, N-terminal rhodamine design, repeat 2) greater than 1000 nM and a Kd (XBP1; 23°C, N-terminal rhodamine design, repeat 3) greater than 1000 nM. It also gave a Kd (MAFF; [1]) greater than 1000 nM, a Kd (MAFF; [2]) greater than 1000 nM and a Kd (MAFF; [3]) greater than 1000 nM. For the same sequence, the Kd (MAFF; [4]) was greater than 1000 nM, the Kd (MAFF; [5]) was greater than 1000 nM and the Kd (MAFF; [6]) was greater than 1000 nM. For the same sequence, the Kd (MAFF; [7]) was greater than 1000 nM, the Kd (MAFF; [8]) was greater than 1000 nM and the Kd (MAFF; [9]) was greater than 1000 nM. For the same sequence, the Kd (MAF; [1]) was greater than 1000 nM, the Kd (MAF; [2]) was greater than 1000 nM and the Kd (MAF; [3]) was greater than 1000 nM. For the same sequence, the Kd (MAF; [4]) was greater than 1000 nM, the Kd (MAF; [5]) was greater than 1000 nM and the Kd (MAF; [6]) was greater than 1000 nM. For the same sequence, the Kd (MAF; [7]) was greater than 1000 nM, the Kd (MAF; [8]) was greater than 1000 nM and the Kd (MAF; [9]) was greater than 1000 nM. It also gave a Kd (NFE2L1; [1]) greater than 1000 nM, a Kd (NFE2L1; [2]) greater than 1000 nM and a Kd (NFE2L1; [3]) greater than 1000 nM. For the same sequence, the Kd (NFE2L1; [4]) was greater than 1000 nM, the Kd (NFE2L1; [5]) was greater than 1000 nM and the Kd (NFE2L1; [6]) was greater than 1000 nM. It also gave a Kd (NFE2L1; [7]) greater than 1000 nM, a Kd (NFE2L1; [8]) greater than 1000 nM and a Kd (NFE2L1; [9]) greater than 1000 nM. For the same sequence, the Kd (BACH2; [1]) was greater than 1000 nM, the Kd (BACH2; [2]) was greater than 1000 nM and the Kd (BACH2; [3]) was greater than 1000 nM. For the same sequence, the Kd (BACH2; [4]) was greater than 1000 nM, the Kd (BACH2; [5]) was greater than 1000 nM and the Kd (BACH2; [6]) was greater than 1000 nM. For the same sequence, the Kd (BACH2; [7]) was greater than 1000 nM, the Kd (BACH2; [8]) was greater than 1000 nM and the Kd (BACH2; [9]) was greater than 1000 nM. The Kd (ATF6; [1]) was greater than 5000 nM, the Kd (ATF6; [4]) was greater than 1000 nM and the Kd (ATF6; [6]) was greater than 1000 nM. The Kd (ATF6; [7]) was greater than 1000 nM, the Kd (ATF6; [8]) was greater than 5000 nM and the Kd (ATF6; 37°C, C-terminal rhodamine design, repeat 1) was greater than 5000 nM. It also gave a Kd (ATF6; 37°C, C-terminal rhodamine design, repeat 2) greater than 5000 nM, a Kd (ATF6; 37°C, C-terminal rhodamine design, repeat 3) greater than 5000 nM and a Kd (ATF6; [9]) greater than 1000 nM. For the same sequence, the Kd (BACH1; [1]) was greater than 1000 nM, the Kd (BACH1; [2]) was greater than 1000 nM and the Kd (BACH1; [3]) was greater than 5000 nM. It also gave a Kd (BACH1; [4]) greater than 1000 nM, a Kd (BACH1; [5]) greater than 1000 nM and a Kd (BACH1; [6]) greater than 1000 nM. It also gave a Kd (BACH1; [7]) greater than 1000 nM, a Kd (BACH1; [8]) greater than 1000 nM and a Kd (BACH1; [9]) greater than 1000 nM. It also gave a Kd (MAFB; [1]) greater than 1000 nM, a Kd (MAFB; [2]) greater than 5000 nM and a Kd (MAFB; [3]) greater than 1000 nM. The Kd (MAFB; [4]) was greater than 1000 nM, the Kd (MAFB; [5]) was greater than 5000 nM and the Kd (MAFB; [6]) was greater than 1000 nM. It also gave a Kd (MAFB; [7]) greater than 1000 nM, a Kd (MAFB; [8]) greater than 5000 nM and a Kd (MAFB; [9]) greater than 1000 nM.

Sequence “KRIAYLRQRIAELRNENHVLESRIQRMEKEKDALQQDRDHLEYEL [ATF5-d1]” has a Kd (ATF3; [2]) greater than 5000 nM, a Kd (ATF3; [3]) greater than 1000 nM and a Kd (ATF3; [5]) greater than 5000 nM. The Kd (ATF3; [6]) was greater than 1000 nM, the Kd (ATF3; [8]) was greater than 1000 nM and the Kd (ATF3; [9]) was greater than 1000 nM. It also gave a Kd (XBP1; [2]) greater than 5000 nM, a Kd (XBP1; [3]) greater than 5000 nM and a Kd (XBP1; [5]) greater than 1000 nM. For the same sequence, the Kd (XBP1; [6]) was greater than 5000 nM, the Kd (XBP1; [8]) was greater than 1000 nM and the Kd (XBP1; [9]) was greater than 5000 nM. It also gave a Kd (MAFF; [2]) of 266 nM, a Kd (MAFF; 4°C, N-terminal rhodamine design, repeat 1) greater than 5000 nM and a Kd (MAFF; [5]) greater than 5000 nM. It also gave a Kd (MAFF; [10]) greater than 5000 nM, a Kd (MAFF; [8]) greater than 5000 nM and a Kd (MAFF; 37°C, N-terminal rhodamine design, repeat 1) greater than 5000 nM. The Kd (MAF; [2]) was 790 nM, the Kd (MAF; [3]) was greater than 5000 nM and the Kd (MAF; [5]) was greater than 5000 nM. The Kd (MAF; [6]) was greater than 5000 nM, the Kd (MAF; [8]) was greater than 1000 nM and the Kd (NFE2L1; [2]) was greater than 5000 nM. For the same sequence, the Kd (NFE2L1; [3]) was greater than 1000 nM, the Kd (NFE2L1; [5]) was greater than 5000 nM and the Kd (NFE2L1; [6]) was greater than 1000 nM. It also gave a Kd (NFE2L1; [8]) greater than 5000 nM, a Kd (NFE2L1; [9]) greater than 1000 nM and a Kd (BACH2; [2]) greater than 5000 nM. The Kd (BACH2; [3]) was greater than 1000 nM, the Kd (BACH2; [5]) was greater than 5000 nM and the Kd (BACH2; [6]) was greater than 5000 nM. The Kd (BACH2; [8]) was greater than 5000 nM, the Kd (BACH2; [9]) was greater than 5000 nM and the Kd (ATF6; [2]) was greater than 5000 nM. The Kd (ATF6; [3]) was greater than 5000 nM, the Kd (ATF6; [5]) was greater than 1000 nM and the Kd (ATF6; [6]) was greater than 5000 nM. The Kd (ATF6; [8]) was greater than 1000 nM, the Kd (ATF6; [9]) was greater than 5000 nM and the Kd (BACH1; [2]) was greater than 1000 nM. For the same sequence, the Kd (BACH1; [3]) was greater than 5000 nM, the Kd (BACH1; [5]) was greater than 1000 nM and the Kd (BACH1; [6]) was greater than 5000 nM. For the same sequence, the Kd (BACH1; [8]) was greater than 5000 nM, the Kd (BACH1; [9]) was greater than 1000 nM and the Kd (MAFB; [2]) was 725 nM. It also gave a Kd (MAFB; [3]) greater than 5000 nM, a Kd (MAFB; [5]) greater than 5000 nM and a Kd (MAFB; [8]) greater than 1000 nM. For the same sequence, the Kd (MAFB; [9]) was greater than 5000 nM.
